# Test results published in patent publication US20220313698A1, “MODULATORS OF CYSTIC FIBROSIS TRANSMEMBRANE CONDUCTANCE REGULATOR” (Vertex Pharmaceuticals Incorporated, priority 2019, published 2022).
# Target: CFTR-mediated chloride transport (Homo sapiens, UniProt P13569)
# Test: Corrector Assay A - membrane potential dye assay (enteroid cells)
# Settings: for Corrector Assay A % activity: % of chloride transport of triple combination control (1 μM (14S)-dispiro macrocycle + 3 μM tezacaftor + 300 nM ivacaftor); for EC50: read-out: Corrector Assay A EC50, human intestinal enteroid cells, 18-24 h incubation, acute 10 μM forskolin + 300 nM ivacaftor
Corrector Assay A % activity,EC50,SMILES
++ (++ is 30-60%),< 1000 nM,"CC(C)(C)c1ccc2c(n1)N1C[C@@H](CCC(c3cc(C4CCNCC4)ccn3)Nc3cccc(n3)S(=O)(=O)NC2=O)CC1(C)C (stereo partly drawn) [Compound 124, (14S)-8-tert-butyl-12,12-dimethyl-17-[4-(piperidin-4-yl)pyridin-2-yl]-2λ^6-thia-3,9,11,18,23-pentaazatetracyclo[17.3.1.111,14.05,10]tetracosa-1(23),5(10),6,8,19,21-hexaene-2,2,4-trione]"
+++ (+++ is >60%),< 1000 nM,CC(C)(C)c1ccc2c(n1)N1C[C@@H](CCC(c3ccc(-c4cc[nH]n4)cn3)Nc3cccc(n3)S(=O)(=O)NC2=O)CC1(C)C (stereo partly shown) [Compound 129]
+++ (+++ is >60%),< 1000 nM,CC(C)(C)c1ccc2c(n1)N1C[C@@H](CCC(c3ccc(-c4cc[nH]n4)cn3)Nc3cccc(n3)S(=O)(=O)NC2=O)CC1(C)C (stereo partly shown) [Compound 130]
+ (+ is <30%),> 3000 nM,CC(C)(C)c1ccc2c(n1)N1C[C@@H](CC[C@@H](c3cccc(C4CCNCC4)n3)Nc3cccc(n3)S(=O)(=O)NC2=O)CC1(C)C [Compound 131]
++ (++ is 30-60%),< 1000 nM,"CC(C)(C)c1ccc2c(n1)N1C[C@@H](CC[C@H](c3cccc(C4CCNCC4)n3)Nc3cccc(n3)S(=O)(=O)NC2=O)CC1(C)C [Compound 132, (14S,17R)-8-tert-Butyl-12,12-dimethyl-17-[6-(piperidin-4-yl)pyridin-2-yl]-2λ^6-thia-3,9,11,18,23-pentaazatetracyclo[17.3.1.111,14.05,10]tetracosa-1(23),5(10),6,8,19,21-hexaene-2,2,4-trione]"
+ (+ is <30%),< 1000 nM,CC(C)(C)c1ccc2c(n1)N1C[C@@H](CC[C@@H](c3cccc(CCCN)n3)Nc3cccc(n3)S(=O)(=O)NC2=O)CC1(C)C [Compound 133]
+++ (+++ is >60%),< 1000 nM,"CC(C)(C)c1ccc2c(n1)N1C[C@@H](CC[C@H](c3cccc(CCCN)n3)Nc3cccc(n3)S(=O)(=O)NC2=O)CC1(C)C [Compound 134, (14S,17R)-17-[6-(3-aminopropyl)pyridin-2-yl]-8-tert-butyl-12,12-dimethyl-2λ^6-thia-3,9,11,18,23-pentaazatetracyclo[17.3.1.111,14.05,10]tetracosa-1(23),5(10),6,8,19,21-hexaene-2,2,4-trione]"
++ (++ is 30-60%),< 1000 nM,CC(C)(C)c1ccc2c(n1)N1C[C@@H](CCC(c3ccc(-c4cn[nH]c4)cn3)Nc3cccc(n3)S(=O)(=O)NC2=O)CC1(C)C (stereo partly shown) [Compound 135]
+++ (+++ is >60%),< 1000 nM,CC(C)(C)c1ccc2c(n1)N1C[C@@H](CCC(c3ccc(-c4cn[nH]c4)cn3)Nc3cccc(n3)S(=O)(=O)NC2=O)CC1(C)C (stereo partly shown) [Compound 136]
++ (++ is 30-60%),< 1000 nM,CC(C)(C)c1ccc2c(n1)N1C[C@@H](CCC(c3ccc(CCCN)cn3)Nc3cccc(n3)S(=O)(=O)NC2=O)CC1(C)C (stereo partly shown) [Compound 137]
++ (++ is 30-60%),< 1000 nM,"CC(C)(C)c1ccc2c(n1)N1C[C@@H](CCC(c3ccc(CCCN)cn3)Nc3cccc(n3)S(=O)(=O)NC2=O)CC1(C)C (stereo partly drawn) [Compound 138, (14S)-17-[5-(3-aminopropyl)pyridin-2-yl]-8-tert-butyl-12,12-dimethyl-2λ^6-thia-3,9,11,18,23-pentaazatetracyclo[17.3.1.111,14.05,10]tetracosa-1(23),5(10),6,8,19,21-hexaene-2,2,4-trione]"
+ (+ is <30%),> 3000 nM,CC(C)(C)c1ccc2c(n1)N1C[C@@H](CC[C@@H](c3cccc(CCC#N)n3)Nc3cccc(n3)S(=O)(=O)NC2=O)CC1(C)C [Compound 139]
++ (++ is 30-60%),< 1000 nM,CC(C)(C)c1ccc2c(n1)N1C[C@@H](CC[C@H](c3cccc(CCC#N)n3)Nc3cccc(n3)S(=O)(=O)NC2=O)CC1(C)C [Compound 140]
++ (++ is 30-60%),1000 to 3000 nM,CC(C)(C)c1ccc2c(n1)N1C[C@@H](CC[C@@H](c3cccc(C4=CCNCC4)n3)Nc3cccc(n3)S(=O)(=O)NC2=O)CC1(C)C [Compound 141]
+++ (+++ is >60%),< 1000 nM,"CC(C)(C)c1ccc2c(n1)N1C[C@@H](CC[C@H](c3cccc(C4=CCNCC4)n3)Nc3cccc(n3)S(=O)(=O)NC2=O)CC1(C)C [Compound 142, (14S,17R)-8-tert-Butyl-12,12-dimethyl-17-{1′,2′,3′,6′-tetrahydro-[2,4′-bipyridine]-6-yl}-2λ^6-thia-3,9,11,18,23-pentaazatetracyclo [17.3.1.111,14.05,10]tetracosa-1(23),5(10),6,8,19,21-hexaene-2,2,4-trione]"
+++ (+++ is >60%),< 1000 nM,"CC(C)(C)c1ccc2c(n1)N1C[C@@H](CCC(c3ccc(CCC#N)cn3)Nc3cccc(n3)S(=O)(=O)NC2=O)CC1(C)C (stereo partly drawn) [Compound 146, 3-{6-[(14S)-8-tert-butyl-12,12-dimethyl-2,2,4-trioxo-2λ^6-thia-3,9,11,18,23-pentaazatetracyclo[17.3.1.111,14.05,10]tetracosa-1(23),5(10),6,8,19,21-hexaen-17-yl]pyridin-3-yl}propanenitrile]"

Corrector Assay A % activity,EC50,SMILES
+ (+ is <30%),> 3000 nM,CC(C)(C)c1ccc2c(n1)N1C[C@@H](CC[C@@H](c3cccc(C4CCOCC4)n3)Nc3cccc(n3)S(=O)(=O)NC2=O)CC1(C)C [Compound 147]
+++ (+++ is >60%),< 1000 nM,CC(C)(C)c1ccc2c(n1)N1C[C@@H](CC[C@H](c3cccc(C4CCOCC4)n3)Nc3cccc(n3)S(=O)(=O)NC2=O)CC1(C)C [Compound 148]
+ (+ is <30%),< 1000 nM,CC(C)(C)c1ccc2c(n1)N1C[C@@H](CC[C@@H](c3cccc(C4=CCOCC4)n3)Nc3cccc(n3)S(=O)(=O)NC2=O)CC1(C)C [Compound 149]
+++ (+++ is >60%),< 1000 nM,CC(C)(C)c1ccc2c(n1)N1C[C@@H](CC[C@H](c3cccc(C4=CCOCC4)n3)Nc3cccc(n3)S(=O)(=O)NC2=O)CC1(C)C [Compound 150]
++ (++ is 30-60%),< 1000 nM,CC(C)(C)c1ccc2c(n1)N1C[C@@H](CC[C@@H](c3cccc(C4CNC4)n3)Nc3cccc(n3)S(=O)(=O)NC2=O)CC1(C)C [Compound 151]
+++ (+++ is >60%),< 1000 nM,CC(C)(C)c1ccc2c(n1)N1C[C@@H](CC[C@H](c3cccc(C4CNC4)n3)Nc3cccc(n3)S(=O)(=O)NC2=O)CC1(C)C [Compound 152]
++ (++ is 30-60%),< 1000 nM,CC(C)(C)c1ccc2c(n1)N1C[C@@H](CCC(c3ccc(C4CCNCC4)cn3)Nc3cccc(n3)S(=O)(=O)NC2=O)CC1(C)C (stereo partly shown) [Compound 153]
+++ (+++ is >60%),< 1000 nM,"CC(C)(C)c1ccc2c(n1)N1C[C@@H](CCC(c3ccc(C4CCNCC4)cn3)Nc3cccc(n3)S(=O)(=O)NC2=O)CC1(C)C (stereo partly drawn) [Compound 154, (14S)-8-tert-Butyl-12,12-dimethyl-17-[5-(piperidin-4-yl)pyridin-2-yl]-2λ^6-thia-3,9,11,18,23-pentaazatetracyclo[17.3.1.111,14.05,10]tetracosa-1(23),5(10),6,8,19,21-hexaene-2,2,4-trione]"
++ (++ is 30-60%),< 1000 nM,CC(C)(C)c1ccc2c(n1)N1C[C@@H](CCC(c3ccc(C4CCOCC4)cn3)Nc3cccc(n3)S(=O)(=O)NC2=O)CC1(C)C (stereo partly shown) [Compound 156]
+++ (+++ is >60%),< 1000 nM,"CC(C)CC#Cc1ccc2c(n1)N1C[C@@H](CC[C@H](c3ccccn3)Nc3cccc(n3)S(=O)(=O)NC2=O)CC1(C)C [Compound 157, (14S,17R)-12,12-dimethyl-8-(4-methylpent-1-yn-1-yl)-17-(pyridin-2-yl)-2λ^6-thia-3,9,11,18,23-pentaazatetracyclo[17.3.1.111,14.05,10]tetracosa-1(22),5,7,9,19(23),20-hexaene-2,2,4-trione]"
++ (++ is 30-60%),< 1000 nM,CC(C)CC#Cc1ccc2c(n1)N1C[C@@H](CC[C@@H](c3ccccn3)Nc3cccc(n3)S(=O)(=O)NC2=O)CC1(C)C [Compound 158]
+++ (+++ is >60%),< 1000 nM,CC1(C)C[C@@H]2CC[C@H](c3ccccn3)Nc3cccc(n3)S(=O)(=O)NC(=O)c3ccc(Cc4ccccc4)nc3N1C2 [Compound 159]
++ (++ is 30-60%),< 1000 nM,CC1(C)C[C@@H]2CC[C@@H](c3ccccn3)Nc3cccc(n3)S(=O)(=O)NC(=O)c3ccc(Cc4ccccc4)nc3N1C2 [Compound 160]
++ (++ is 30-60%),< 1000 nM,CC(C)O[C@H]1C[C@@H](Oc2ccc3c(n2)N2C[C@@H](CC[C@@H](c4ccccn4)Nc4cccc(n4)S(=O)(=O)NC3=O)CC2(C)C)C1 [Compound 162]
++ (++ is 30-60%),< 1000 nM,CC(C)(C)c1ccc2c(n1)N1C[C@@H](CCC(c3ccc(N4CCCC4)cn3)Nc3cccc(n3)S(=O)(=O)NC2=O)CC1(C)C (stereo partly shown) [Compound 163]

SMILES,Corrector Assay A % activity,EC50
"CC(C)O[C@H]1C[C@@H](Oc2ccc3c(n2)N2C[C@@H](CC[C@H](c4ccccn4)Nc4cccc(n4)S(=O)(=O)NC3=O)CC2(C)C)C1 [Compound 161, (14S,17R)-12,12-dimethyl-17-(pyridin-2-yl)-8-[(1s,3S)-3-(propan-2-yloxy)cyclobutoxy]-2λ^6-thia-3,9,11,18,23-pentaazatetracyclo[17.3.1.111,14.05,10]tetracosa-1(22),5,7,9,19(23),20-hexaene-2,2,4-trione]",+++ (+++ is >60%),< 1000 nM
